pIC50: −log10 of the molar value.
Key:
[1] = tested on: intraocular pressure (IOP); assay: In vivo tonometric IOP assay in microbead mouse model of ocular hypertension; conditions: FIG. 2 right panel; P<0.01 / P<0.001, two-way ANOVA
Method: FIG. 1 is a graph showing the effect that two concentrations of topical compound 11 (0.01% and 0.1%), 0.5% timolol, and control PBS had on IOP in the microbead (MB) mouse model of ocular hypertension (N=3 separate experiments, with 7-10 mice per experimental cohort). Error bars=±S.E.M. Ocular hypertension in the mouse model of primary open angle glaucoma (POAG) was induced with intracameral injection of polystyrene microbeads. Antagonist stock solutions (10 mM) were prepared in DMSO, the final concentrations were made in PBS diluted to <0.0001% DMSO.
FIG. 2 is a bar chart showing the cumulative data for pre-IOP elevation cohorts of mouse eyes (N≥3 separate experiments, with 7-10 mice per experimental cohort). Left panel: the IOP data are plotted as % of the control value of the timolol-treated eye cohort. Middle panel: MB injection elevated IOP in all experimental cohorts.
A tonometric assay was used to measured IOP changes in mice models of ocular hypertension over a period of weeks following topical application of the compounds.
To prepare the mice models of ocular hypertension, mice were anesthetized with an intraperitoneal (IP) injection of ketamine/xylazine (90 mg/10 mg/kg of body weight). Eye drops of 0.5% proparacaine hydrochloride with 1% tropicamide ophthalmic solution (Bausch & Lomb) were applied to numb and dilate the eyes of the mice. IOP was elevated in the ipsilateral eye by injecting 2 μl of polystyrene microbeads (7.8 μm FluoSpheres; Bangs Laboratories) with a Hamilton syringe into the anterior chamber over 60 seconds. The contralateral eye was injected with phosphate buffered saline (PBS).
A rebound tonometer was used to measure IOP at 1, 2, 6 and 10 hours post-injection after topical administration of Compounds 11 and 52 and timolol, a known medication for treatment of IOP associated with ocular hypertension and glaucoma. The IOP was determined from the means of 10 to 20 readings, following the protocol described in Ryskamp et al., Sci Rep 6:30583, 2016. […]

[2] = tested on: intraocular pressure (IOP); assay: as above; conditions: for IOP after single topical application: 1 μM and 10 μM, comparable to 0.5% timolol; for IOP after topical administration / protection of RGCs: mouse model of ocular hypertension, compounds 1 μM and 10 μM, timolol 0.5%; for IOP after topical administration: FIG. 1; for protection of RGCs: topical
TRPV1 = biological target: T1, TRPV1 (Homo sapiens, UniProt Q8NER1); assay: Selectivity Ca2+ flux assay, TRPV1 stably overexpressed in human lung epithelial (BEAS-2B) cells; type: cell-based; conditions: agonist nonivamide (5 μM)
T1 construct: expressed in transfected cells
T1 sequence (Q8NER1 whole entry): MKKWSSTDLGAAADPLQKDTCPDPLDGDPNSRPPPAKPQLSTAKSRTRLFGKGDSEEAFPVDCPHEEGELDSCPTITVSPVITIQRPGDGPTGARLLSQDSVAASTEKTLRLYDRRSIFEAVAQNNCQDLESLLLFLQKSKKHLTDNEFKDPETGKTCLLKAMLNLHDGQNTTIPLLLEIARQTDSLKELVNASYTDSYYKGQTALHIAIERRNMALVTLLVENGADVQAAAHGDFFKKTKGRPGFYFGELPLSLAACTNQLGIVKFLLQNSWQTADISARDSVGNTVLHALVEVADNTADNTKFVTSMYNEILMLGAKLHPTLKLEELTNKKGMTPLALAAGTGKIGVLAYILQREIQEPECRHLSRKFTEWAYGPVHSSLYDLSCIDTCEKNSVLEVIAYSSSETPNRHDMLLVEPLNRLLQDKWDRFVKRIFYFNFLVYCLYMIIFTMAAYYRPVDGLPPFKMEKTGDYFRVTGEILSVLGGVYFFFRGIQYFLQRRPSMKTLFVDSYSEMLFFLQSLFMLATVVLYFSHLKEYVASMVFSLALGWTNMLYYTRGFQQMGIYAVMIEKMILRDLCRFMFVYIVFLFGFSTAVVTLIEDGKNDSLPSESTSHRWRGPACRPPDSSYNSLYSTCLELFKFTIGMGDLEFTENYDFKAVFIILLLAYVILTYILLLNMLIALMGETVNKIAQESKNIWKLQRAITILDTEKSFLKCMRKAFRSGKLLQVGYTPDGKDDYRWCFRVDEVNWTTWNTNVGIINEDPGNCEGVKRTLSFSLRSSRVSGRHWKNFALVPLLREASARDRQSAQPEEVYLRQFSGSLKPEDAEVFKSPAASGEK
Method: (§1) To determine selectivity of the various test compounds for TRPV4, select compounds with activity in the TRPV4 fluorometric cell-based Ca^2+ flux assays were also tested for inhibition of human TRPA1 stably over-expressed in HEK-293 cells, TRPM8 stably over-expressed in HEK-293 cells, TRPV3 stably over-expressed in HEK-293 cells, and TRPV1 stably overexpressed in human lung epithelial (BEAS-2B) cells. The assays were conducted substantially as described above for HEK-293 cells that stably overexpress TRPV4, although for TRPV1, the BEAS-2B cells were maintained in LHC-9 media containing Geneticin (300 μg/mL) and were loaded with Fluo-4AM at room temperature. The agonist for TRPA1 was 2,4-ditert butylphenol (50 μM), for TRPM8 was icilin (50 μM), for TRPV3 was carvacrol (300 μM), and for TRPV1 was nonivamide (5 μM). All other aspects of the assay described above were the same.

human TRPA1 = biological target: T2, human TRPA1 (Homo sapiens, UniProt O75762); assay: Selectivity Ca2+ flux assay, TRPA1 stably over-expressed in HEK-293 cells; type: cell-based; conditions: agonist 2,4-ditert butylphenol (50 μM)
T2 construct: expressed in transfected cells
T2 sequence (O75762 whole entry): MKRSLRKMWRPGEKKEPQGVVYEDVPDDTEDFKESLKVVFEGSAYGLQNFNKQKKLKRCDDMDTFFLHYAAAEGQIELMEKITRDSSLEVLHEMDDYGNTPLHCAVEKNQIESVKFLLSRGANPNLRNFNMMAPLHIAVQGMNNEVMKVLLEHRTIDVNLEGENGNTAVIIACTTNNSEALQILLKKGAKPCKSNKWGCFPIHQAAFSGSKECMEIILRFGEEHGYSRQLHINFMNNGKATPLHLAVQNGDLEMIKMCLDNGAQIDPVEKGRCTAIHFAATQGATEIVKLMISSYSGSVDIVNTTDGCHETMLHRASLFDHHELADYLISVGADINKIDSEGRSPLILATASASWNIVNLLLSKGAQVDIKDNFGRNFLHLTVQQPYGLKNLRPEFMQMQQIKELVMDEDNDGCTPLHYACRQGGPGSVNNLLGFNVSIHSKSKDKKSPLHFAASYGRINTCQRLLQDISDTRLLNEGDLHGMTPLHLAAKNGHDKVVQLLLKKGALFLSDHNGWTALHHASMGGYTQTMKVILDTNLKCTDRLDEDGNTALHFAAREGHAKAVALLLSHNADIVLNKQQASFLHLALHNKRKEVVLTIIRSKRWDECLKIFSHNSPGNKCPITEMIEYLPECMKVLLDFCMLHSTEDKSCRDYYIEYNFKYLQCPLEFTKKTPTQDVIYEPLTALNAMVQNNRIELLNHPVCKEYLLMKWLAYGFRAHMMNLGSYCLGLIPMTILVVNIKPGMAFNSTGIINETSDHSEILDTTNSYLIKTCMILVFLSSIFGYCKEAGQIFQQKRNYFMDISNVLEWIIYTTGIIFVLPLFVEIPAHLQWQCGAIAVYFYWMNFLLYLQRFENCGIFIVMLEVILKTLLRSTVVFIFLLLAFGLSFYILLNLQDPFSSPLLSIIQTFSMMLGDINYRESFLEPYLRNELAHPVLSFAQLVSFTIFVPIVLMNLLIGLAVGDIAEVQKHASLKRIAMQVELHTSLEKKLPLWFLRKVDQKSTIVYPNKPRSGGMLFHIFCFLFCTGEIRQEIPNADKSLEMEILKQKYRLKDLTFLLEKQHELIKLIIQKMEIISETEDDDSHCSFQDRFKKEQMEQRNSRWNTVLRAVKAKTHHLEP
Method: as §1

[3] = tested on: intraocular pressure (IOP); assay: In vivo IOP assay in dog model of ocular hypertension (ADAMTS10 Beagles)
Method: Homozygous Beagels with autosomal recessive missense mutation in the ADAMTS10 gene develop significant IOP elevations due to decreased outflow facility for aqueous humor, resulting in open angle glaucoma that manifests as optic nerve head cupping and optic neuropathy.
8 drops of Compound 52 (200 mM in hydroxypropyl methylcellulose solution, stock dissolved in DMSO) were administered to the Beagels at 7 AM for 1.5 hours. Control eyes received the vehicle (hydroxypropyl methylcellulose eyedrop with proper dilution of DMSO). IOP was measured by tonometry at 9:00 AM (6 readings per event, averaged) in dogs under topical anesthesia (N=5 OAG, N=5 non-symptomatic dogs). General ophthalmic examinations were performed by slit lamp biomicroscopy (Kowa SL-17 Portable Slit Lamp; Kowa Company, Ltd.) and indirect ophthalmoscopy (Keeler All Pupil II headset; Keeler Instruments; Pan Retinal 2.2D condensing lens; Volk Optical) to detect potential treatment-related adverse effects.

| SMILES | IOP levels in MB-treated eyes, topical application [1] | IOP after single topical application [2] | IOP after topical administration [2] | protection of RGCs [2] | pIC50 (TRPV1) | pIC50 (human TRPA1) | average IOP after topical application ([3]; ocular hypertensive dogs, mean baseline IOP 45.5 mm Hg, 8 drops, 200 mM in hydroxypropyl methylcellulose) | tolerability in dogs ([3]; topical, N=10) | signs of ocular discomfort or conjunctival hyperemia ([3]; topical, N=10, slit lamp and ophthalmoscopy) |
| --- | --- | --- | --- | --- | --- | --- | --- | --- | --- |
| N#Cc1ccc(OCC2(CO)CN(S(=O)(=O)c3ccc(Cl)cc3Cl)C2)cc1F [Compound 11, 4-((1-((2,4-Dichlorophenyl)sulfonyl)-3-(hydroxymethyl)azetidin-3-yl)methoxy)-2-fluorobenzonitrile] | significantly lowered IOP levels | effectively lower IOP | lowered the IOP | protected RGCs | 4.61 | 4.28 |  |  |  |
| Cl.N#Cc1ccc(OCC2(N)CN(S(=O)(=O)c3ccc(Cl)cc3Cl)C2)cc1F [Compound 52, 4-((3-Amino-1-((2,4-dichlorophenyl)sulfonyl)azetidin-3-yl)methoxy)-2-fluorobenzonitrile hydrochloride salt] | significantly lowered IOP levels | effectively lower IOP | lowered the IOP | protected RGCs | 4.22 | 4.05 | 36.6 mm Hg | well-tolerated | no observable signs of ocular discomfort or conjunctival hyperemia |

— patent US20230026696A1, “TRPV4 RECEPTOR LIGANDS” (UNIVERSITY OF UTAH RESEARCH FOUNDATION, priority 2019, published 2023)
